Experimental data from US20250017856A1, “CO-FORMULATION AND CO-DELIVERY OF IONIZABLE COLLOID FORMING DRUGS WITH NUCLEIC ACIDS” (THE GOVERNING COUNCIL OF THE UNIVERSITY OF TORONTO, priority 2023, published 2025).
Values joined by “and” are separate entries in the source; they are usually repeats but may differ in a detail not shown here. Equal values may be shown once. Blank lines part the entries; values can stand above or below the compound they belong to.

How the values were obtained:
[1] = Zeta potential (Malvern Zetasizer); format: physicochemical; details: FxNP, siFLuc, DSPC
Method: Zeta potential was measured by diluting FXNPs in phosphate to an ion concentration of 1 mM and using a Malvern Zetasizer Nano ZS instrument.

[2] = RNA encapsulation efficiency (modified Quant-iT RiboGreen assay) and loading; format: physicochemical; details: for Encapsulation efficiency (%) / Small molecule drug mass % / siRNA mass %: FxNP, siFLuc, DSPC
Source text: (§1) [NT] antisense (SEQ ID NO: 2): [NT] where “d” denotes a DNA base), siFLuc-2 (sense (SEQ ID NO: 3): [NT] antisense (SEQ ID NO: 4): [NT] where “d” denotes a DNA base and “m” indicates a 2'-O-methyl RNA base), sinLuc (sense (SEQ ID NO: 5): [NT] antisense SEQ ID NO: 6): [NT] where “d” denotes a DNA base), […]1 (sense (SEQ ID NO: 7): [NT] antisense (SEQ ID NO: 8): [NT] where “d” denotes a DNA base and “m” indicates a 2'-O-methyl RNA base), siNT (sense (SEQ ID NO: 9): [NT] antisense (SEQ ID NO: 10): [NT] where “d” denotes a DNA base and “m” indicates a 2'-O-methyl RNA base), mFLuc (EZ Cap Firefly Luciferase mRNA (5-moUTP), ApexBio), rRNA or RNA from Torula utilis yeast (T.U. RNA) was diluted in citrate buffer (50 or 25 mM, pH 4), malate buffer (25 mM, pH 4.0) or acetate buffer (25 mM, pH 4.0). A lipid/drug mix concentration of 5.5 mM was used with a total flow rate of 9 mL/min at a 3:1 ratio of aqueous to organic phase. […] After formulation, buffer exchange into PBS or Tris-buffered saline (TBS; pH 8.5) was performed using Amicon Ultra-4 centrifugal filters (molecular weight cut-off 10 kDa). Hydrodynamic diameter, polydispersity index (PDI), and scattering intensity were measured by dynamic light scattering (DLS) using a DynaPro Plate Reader II (Wyatt Technologies). The instrument was configured with a 60 mW 830 nm laser and a detector angle of 158°. A 25 μL sample of each formulation was pipetted into each well of a 384-well plate and measured with 20 acquisitions per sample at 25° C. […] Quant-iT RiboGreen reagent was added, and fluorescence intensity was quantified using a Tecan Infinite […] plate reader.

[3] = Hydrodynamic diameter and polydispersity index by dynamic light scattering; format: physicochemical; details: for Hydrodynamic diameter (nm) / PDI: FxNP, siFLuc, DSPC
Source text: as §1

[4] = test system: firefly luciferase expression in mouse liver; experiment: In vivo liver bioluminescence after i.v. injection of mFLuc nanoparticles; parameters: species or system BALB/c mice; details: tail vein, 1 mg/kg mRNA, 4 and 24 h
Method: Animal study protocols were approved by the Animal Care Committee at the University of Toronto and experiments were performed in accordance with the Guide to Care and Use of Experimental Animals (Canadian Council on Animal Care). FXNPs with encapsulated mFLuc and DIR (0.5 mol %) were administered (1 mg/kg in terms of mRNA) via tail vein injection to BALB/c mice. After 4 h and 24 h, mice were anesthetized using isoflurane and injected intraperitoneally with 150 mg/kg VivoGlo™ luciferin (Promega, Madison, WI). Whole-body luminescence was acquired by a PerkinElmer In-Vivo Imaging System Spectrum instrument after 10-20 minutes.

SKOV3 cells = experiment: Cellular uptake of DiD-labelled nanoparticles by fluorescence microscopy; format: cell-based; details: with DOPC or DSPE; 20 nM T.U. RNA, 3 h
Method: 2.5-5.0×10^3 SKOV3 cells or 1.0×10^4 T47D cells in 25 μL were plated in each well of a 384-well plate (Greiner Bio-One 781097) and allowed to adhere overnight. For endocytosis blocking studies, cells were washed once with Hank's Balanced Salt Solution (HBSS), and then fresh media containing an endocytosis blocker was added and plates were incubated at 37° C. for 30 min prior to dosing. For ApoE supplementation studies and endocytosis-blocking studies, serum free media, serum free media supplemented with ApoE (1.5 μg/mL), complete media, or complete media with hydroxydynasore (20 μM) was added for 30 min prior to dosing). […] The plate was incubated at 37° C. for 3 h after which the media was removed, and the cells were washed with HBSS, fixed for 15 min with 4% (m/v) PFA in PBS, and stained for 15 min with 5 μg/mL Hoechst in PBS before imaging by wide-field fluorescence microscopy imaging as described below.
Fluorescence images were acquired using a Zeiss Apotome Live Cell System (Axio Observer Z.1 inverted fluorescence microscope) with a long working distance 40× Plan Neofluor objective (NA=0.6, Carl Zeiss Canada), and X-Cite 120 LED fluorescence lamp (Lumen Dynamics), and an […]

T47D-R cells = experiment: Confirmation of palbociclib resistance; format: cell-based; details: Homo sapiens; palbociclib-resistant T47D cells (T47D-R)
Method: SKOV3 cells were obtained from ATCC. SKOV3-luc cells were obtained from Cell Biolabs. Vero-E6-nLucP cells were a generous gift from Roman Melnyk. T47D cells were a gift from B. Neel (University Health Network). Palbociclib-resistant T47D cells (T47D-R) were developed by dose escalation of palbociclib up to 500-1000 nM over 6-12 months and was confirmed by a palbociclib IC50 greater than […]. Parental T47D cells (T47D-P) were cultured over the same time frame without palbociclib treatment. Cells were maintained in a humified incubator at 37° C. with 5% atmospheric CO2. RPMI 1640 (SKOV3, T47D) or EMEM (Vero-E6) were used as a base media. Cells were grown in 75 cm^2 tissue culture flasks with 10 mL of media supplemented with 10% FBS, 10 UI/mL penicillin and 10 μg/mL streptomycin. The cells were passaged once per week following detachment with trypsin-EDTA, replacement of the supernatant with fresh media, and subculture into a new flask with fresh media. Subculture ratios between 1:4 and 1:50 were used.

FLuc in SKOV3-FLuc cells = experiment: Model gene knockdown, firefly luciferase; format: cell-based
Method: For single-dose studies, 5×10^3 SKOV3-FLuc or 2×10^3 Vero-nLucP cells in 100 μL were plated in each well of a white-wall 96-well plate (Costar 3610) and allowed to adhere overnight. FXNP suspensions were diluted in PBS and 10 μL of each tested formulation was dosed in triplicate, followed by 100 μL of complete cell growth media to promote mixing. The final encapsulated siRNA concentration in each well was 50.0 nM. For dose-response studies, 1.25×10^3 SKOV3-FLuc cells in 25 μL were plated in each well of a white-wall 384-well plate (Greiner Bio-one 781073) and allowed to adhere overnight. Nanoparticle suspensions were diluted in PBS and 5 μL of each tested formulation was dosed in triplicate, followed by 20 μL of complete cell growth media to promote mixing. The final encapsulated siRNA concentration in each well is specified in each figure. For all studies, the plate was incubated for 24 h followed by removal of the media. For SKOV3-FLuc cells, fresh media was added, and the plate was incubated for an additional 24 h before removal of the media. Total cellular metabolic activity was quantified by addition of PrestoBlue™ according to the manufacturer's instructions, after which the reagent was subsequently removed, and expression of either firefly luciferase (SKOV3-FLuc) or nano luciferase (Vero-nLucP) was determined by Steady-Glo® Luciferase Assay System or Nano-Glo® Luciferase Assay System, respectively. Luminescence was measured using a Tecan Infinite Pro 200 plate reader. Cell metabolic activity and reporter gene expression are represented relative to cells treated with an equivalent volume of PBS. Reporter gene expression is normalized to cell metabolic activity. For dose-response studies, IC50 values were determined by non-linear regression analysis using eq. 3

[5] = ionizable compound (fulvestrant analog); cited from earlier work
[6] = no cholesterol versus standard formulation

Zeta potential (mV) [1]: −19.23 mV
encapsulation and loading efficiencies of siRNA (in words) ([2]; DSPC formulations): low
Encapsulation efficiency (%) [2]: 14.5%
Small molecule drug mass % [2]: 52.8%
siRNA mass % [2]: 0.9%
Hydrodynamic diameter (nm) [3]: 204.7 nm
PDI [3]: 0.102
SMILES: C[C@]12CC[C@@H]3c4ccc(O)cc4C[C@@H](CCCCCCCCC[S+]([O-])CCCC(F)(F)C(F)(F)F)[C@H]3[C@@H]1CC[C@@H]2O (some centres unmarked) [FV, fulvestrant, reference compound]
liver bioluminescence [4]: did not show bioluminescence above the baseline

siRNA encapsulation efficiency ([2]; natively ionizable drug in place of fulvestrant analog, standard formulation): ~85% and ~95%
loss of encapsulated siRNA on removal of cholesterol [2, 6]: ~70%
increase in particle size on removal of cholesterol [3, 6]: 4 fold
particle size ([3]; siRNA, standard formulation): ~100 nm
SMILES: Fc1ccc(-n2cc(CCCCN3CCC4(CC3)OCc3ccccc34)c3ccccc32)cc1 [siramesine, reference compound]
nanoparticle formation with RNA cargos of varying molecular weight ([2]; siRNA, T.U. RNA, rRNA, mRNA): form nanoparticles encapsulating a range of RNA cargos
uptake relative to DSPC-based nanoparticles (SKOV3 cells): significantly improve uptake

IC50 (T47D-R cells): > 1000 nM
SMILES: CC(=O)c1c(C)c2cnc(Nc3ccc(N4CCNCC4)cn3)nc2n(C2CCCC2)c1=O [palbociclib]

SMILES: CCCCCCCCCCCOC(=O)CCCCCN(CCO)CCCCCCCC(=O)OC(CCCCCCCC)CCCCCCCC [SM-102]
effect of removing netarsudil without replacement (FLuc in SKOV3-FLuc cells; netarsudil:SM-102 0:10): decrease in potency and loss of encapsulated siRNA
change of IC50 on replacing all of the netarsudil with SM-102 (FLuc in SKOV3-FLuc cells; netarsudil:SM-102 0:50): non-significant decrease in IC50

IC50 (FLuc in SKOV3-FLuc cells; 50:0 netarsudil:SM-102, narrowed concentration range (<2 nM)): > 2 nM
IC50 (FLuc in SKOV3-FLuc cells; TBS, 40 mol % netarsudil with 10 mol % ALC-0315): 0.32 nM
IC50 (FLuc in SKOV3-FLuc cells; TBS, 40 mol % netarsudil with 10 mol % MC3): 0.77 nM
IC50 (FLuc in SKOV3-FLuc cells; TBS, 40 mol % netarsudil with 10 mol % SM-102): 0.16 nM
IC50 (FLuc in SKOV3-FLuc cells; neutralized in TBS, 50 mol % netarsudil, no ionizable lipid): 3.8 nM
SMILES: Cc1ccc(C(=O)OCc2ccc([C@@H](CN)C(=O)Nc3ccc4cnccc4c3)cc2)c(C)c1 [netarsudil]

Zeta potential (mV) [1]: −7.54 mV
Encapsulation efficiency (%) [2]: 86.4%
Small molecule drug mass % [2]: 55.3%
siRNA mass % [2]: 4.4%
Hydrodynamic diameter (nm) [3]: 160.5 nm
PDI [3]: 0.183
SMILES: CC12CCC3c4ccc(O)cc4CC(CCCCCCCCCS(=O)(CCCC(F)(F)C(F)(F)F)=NC(=O)CN4CCCC4)C3C1CCC2O (centres unmarked) [7h]
pKa [5]: 7.3
